From ChEMBL document CHEMBL1201862, “PubChem BioAssay data set” (2004)
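These data come from cells grown in 96-well plates and exposed to compound for 48 hours at five concentrations. At the GI50, growth is halved.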 Calls of active or inactive are those of the source. No stated cut-off is given here; in the data, active = GI50 up to about 1.1 µM and inactive = higher.

Columns and labels:
Assay in all cases: NCI anticancer screen, dose series, 48 h
K562 = test system: K562
PC-3 = test system: PC-3
EKVX = test system: EKVX
HT-29 = test system: HT-29
SN12C = test system: SN12C
786-0 = test system: 786-0
U-251 = test system: U-251
SR = test system: SR
SF-268 = test system: SF-268
COLO 205 = test system: COLO 205
SK-OV-3 = test system: SK-OV-3
MDA-MB-231 = test system: MDA-MB-231
CAKI-1 = test system: CAKI-1
HCT-116 = test system: HCT-116
HOP-62 = test system: HOP-62
TK-10 = test system: TK-10
NCI-H522 = test system: NCI-H522
MDA-N = test system: MDA-N
SNB-75 = test system: SNB-75

Measured: GI50

O=C1N[C@@H]2c3c(Br)sc(Br)c3C(=O)[C@@H]2N1
inactive: K562 2.1 µM | PC-3 3.05 µM | EKVX 4.08 µM | HT-29 2.82 µM | SN12C 4.22 µM | 786-0 2.41 µM | U-251 2.53 µM | SR 1.74 µM | SF-268 3.33 µM | COLO 205 3.78 µM | SK-OV-3 14.1 µM | MDA-MB-231 4.83 µM | CAKI-1 3.8 µM | HCT-116 1.89 µM | HOP-62 6.65 µM | TK-10 2.24 µM | NCI-H522 5.04 µM | MDA-N 2.08 µM | SNB-75 7.73 µM

COc1cc(/N=N/c2cccc(S(N)(=O)=O)c2)c2ccccc2c1N
inactive: K562 12.2 µM | PC-3 11.5 µM | EKVX 13.8 µM | HT-29 15.2 µM | SN12C 8.89 µM | 786-0 13.4 µM | U-251 7.48 µM | SR 11.3 µM | SF-268 15 µM | COLO 205 13 µM | SK-OV-3 15.6 µM | MDA-MB-231 10.5 µM | CAKI-1 7.06 µM | HCT-116 14.7 µM | HOP-62 7.35 µM | TK-10 16.1 µM | NCI-H522 12.1 µM | MDA-N 2.41 µM | SNB-75 1.98 µM

O=C(C1OC1c1ccc(O)cc1)C12CC3CC(CC(C3)C1)C2 (centres undefined)
inactive: K562 23.7 µM | PC-3 85.5 µM | EKVX > 58.1 µM | HT-29 > 100 µM | SN12C 47.1 µM | 786-0 31.6 µM | U-251 > 76 µM | SR 30.1 µM | SF-268 > 87.1 µM | COLO 205 29.5 µM | SK-OV-3 > 100 µM | MDA-MB-231 > 100 µM | CAKI-1 40.8 µM | HCT-116 41.5 µM | HOP-62 > 100 µM | TK-10 58.3 µM | NCI-H522 7.29 µM | MDA-N > 57.1 µM | SNB-75 > 100 µM

COC(=O)c1c2c(cc3c1CC1(Cc4ccc(C(C)=O)cc4C1)C3)CCC2 (centres undefined)
inactive: K562 14.9 µM | PC-3 19.5 µM | EKVX 42.7 µM | HT-29 19.5 µM | SN12C 19.7 µM | 786-0 51.8 µM | U-251 50.7 µM | SR 20.7 µM | SF-268 83.2 µM | COLO 205 31.9 µM | SK-OV-3 63.2 µM | MDA-MB-231 20.4 µM | CAKI-1 53.3 µM | HCT-116 36.3 µM | HOP-62 91.2 µM | TK-10 > 100 µM | NCI-H522 21 µM | MDA-N 7.64 µM | SNB-75 30.4 µM

COc1nc2nccnc2c(=O)n1C
inactive: K562 > 10 µM | PC-3 > 10 µM | EKVX > 10 µM | HT-29 > 10 µM | SN12C > 10 µM | 786-0 > 10 µM | U-251 > 10 µM | SR > 10 µM | SF-268 > 10 µM | COLO 205 > 10 µM | SK-OV-3 > 10 µM | MDA-MB-231 > 10 µM | CAKI-1 > 10 µM | HCT-116 > 10 µM | HOP-62 > 10 µM | TK-10 > 10 µM | NCI-H522 > 10 µM | MDA-N > 10 µM | SNB-75 > 10 µM

COc1cc2c(cc1O)[C@]1(Cc3ccc4c(c3C1=O)OCO4)N(C)CC2
inactive: K562 > 100 µM | PC-3 > 100 µM | EKVX > 100 µM | HT-29 > 100 µM | SN12C > 100 µM | 786-0 > 100 µM | U-251 > 100 µM | SR > 100 µM | SF-268 > 100 µM | COLO 205 > 100 µM | SK-OV-3 > 100 µM | MDA-MB-231 > 100 µM | CAKI-1 > 100 µM | HCT-116 > 100 µM | HOP-62 > 100 µM | TK-10 > 100 µM | NCI-H522 > 100 µM | MDA-N > 100 µM | SNB-75 73.5 µM
